The values below are quoted from earlier work in article PMC9008720 (Biomedical chromatography : BMC, 2022).

This data set deals with GBM tumor. The following applies: ref Zalcman et al., 2018.

For `CNC(=O)c1ccc(N2C(=S)N(c3ccc(C#N)c(C(F)(F)F)c3)C(=O)C2(C)C)cc1F` [enzalutamide], the “GBM tumor growth in nude mice” value is “reduced the GBM tumor growth”.
